What was measured:
Format in all cases: cell-based, human
MCF-7 Nod2 cells [1] = test: Apoptosis (PI, flow cytometry) in MCF-7 cells over-expressing Nod2; conditions: 20 ug/ml plus CHX, 48 h
Description: (§1) In FIG. 5A, MCF-7 Blasto, MCF-7 Nod1 and MCF-7 Nod2 were treated with the NOD1 ligand γTriDAP or the Nod2 ligand muramyl dipeptide (MDP)(20 ug/ml each) in the presence or absence of CHX for 48 h. Cells were then incubated with PI and apoptotic cell death was measured by flow cytometry. […] In FIG. 5B, expression of NOD1 and NOD2 was confirmed by Western blot analysis using anti-Myc antibodies for detection of the recombinant proteins. […] MCF-7 Blasto, MCF-7 Nod1 and MCF-7 Nod2 cells were stimulated with γTriDAP or MDP in the presence or absence of CHX (0.5 ug/ml) for 24 h. Cell supernatants were then harvested and assayed for IL-8 secretion.
Cell viability assays. Propidium iodide exclusion assay: Cells were stimulated as indicated for 2 days. […] The extent of cell death was analyzed with a FACSCalibur flow cytometer (Becton Dickinson, Mountain View, Calif.). […] Cells were fixed in 4% paraformaldehyde and examined by fluorescence microscopy.
(§2) Experiments were also performed to ascertain whether activation of Nod2 by its specific activator, muramyl dipeptide (MDP), would initiate apoptosis in parental MCF-7 cells or in MCF-7 cells over-expressing Nod2 (MCF-7 Nod2). Thus, γTriDAP or MDP were added to each of these lines and apoptosis (FIG. 5A) and IL-8 production (FIG. 5C) were measured. […]

MCF-7 Nod2 cells [2] = test: IL-8 secretion (ELISA) in MCF-7 Nod2 cells; conditions: 24 h
Description: as §1
IL-8 ELISA. Concentrations of IL-8 in the culture supernatants of transfected HeLa cells were measured by ELISA using 96-well Immunlon plates (Dynatech Laboratories, Chantilly, Va.). ELISA was performed using the mAb MAB208 for capture and a biotinylated polyclonal rabbit anti-human IL-8 Ab (R&D Systems, Minneapolis, Minn.) followed by streptavidin HRP for detection.
as §2

[3] = test system: MCF-7 C20 cells with Nod2; test: Apoptosis in MCF-7 C20 cells complemented with Nod2; conditions: MCF-7 C20 complemented with Nod2 (data not shown)
[4] = test system: MCF-7 cells expressing wild type RIP2, RIP2 KD or RIP2ΔCARD; test: Apoptosis (PI, flow cytometry) in MCF-7 cells stably expressing RIP2 constructs; conditions: 20 μg/ml, CHX 3 μg/ml, 48 hr
Description: FIG. 13A-D illustrate that RIP2 is an important component of the Nod1 apoptotic pathway. […] MCF-7 cells were stably transfected with Myc-Nod1, Myc-RIP2 (wild type), Myc-RIP2 KD, and Myc-RIP2 ΔCARD. Test cells were then treated with γTriDAP, αTriDAP and MDP (20 μg/ml each) in the presence or absence of CHX (3 μg/ml) for 48 hr, while control cells were not treated with these agents. Cells were then incubated with propidium iodide (PI) and apoptotic cell death was measured by flow cytometry. FIG. 13B illustrates the effect of TNF upon apoptosis in the same MCF-7 cell lines described in FIG. 13A. These cells lines were treated with TNF (10 ng/ml) for 18 hr and apoptotic cell death was assessed as described for FIG. 13A. TNF increased apoptosis in all the cell lines tested. […] Cells were incubated in the presence of increasing concentrations of γTriDAP or MDP in the presence of CHX for 48 hr and apoptotic cell death was assessed as described for FIG. 13A. FIG. 13D illustrates IL-8 secretion by MCF-7 Blasto, MCF-7 Nod1 and MCF-7 RIP2 wild type cells after stimulation with γTriDAP in the presence of CHX ([…]) or TNF. […]
Cell viability assays. […] The extent of cell death was analyzed with a FACSCalibur flow cytometer (Becton Dickinson, Mountain View, Calif.). […] Cells were fixed in 4% paraformaldehyde and examined by fluorescence microscopy. […]

**Q.** Which apoptosis (MCF-7 Nod2 cells [1]) does the source give for muramyl dipeptide [MDP] here?
**A.** did not undergo increased apoptosis

**Q.** And the IL-8 secretion (MCF-7 Nod2 cells [2])?
**A.** did result in IL-8 secretion

**Q.** And the apoptosis [3]?
**A.** did not result in apoptosis

**Q.** And the apoptosis ([4]; cells expressing RIP2 KD)?
**A.** effective at inducing high levels of apoptosis

**Q.** And the apoptosis ([4]; cells expressing either wild type RIP2 or RIP2ΔCARD)?
**A.** not

Reference: patent US20090028795A1, “NOD1 as an Anti-Tumor Agent” (priority 2005, published 2009)
